Here are results for 1 molecule from ChEMBL document CHEMBL4196097, “Emerging Approaches for the Identification of Protein Targets of Small Molecules - A Practitioners' Perspective” (J Med Chem, 2018).

One experiment concerns the target Translocator protein (Homo sapiens, UniProt P30536). The experiment is described as follows: Inhibition of peripheral-type benzodiazepine receptor (unknown origin).
Another experiment has as its target T1, Adenosine receptor A3 (Homo sapiens, UniProt P0DMS8).
T1 sequence (P0DMS8 whole entry): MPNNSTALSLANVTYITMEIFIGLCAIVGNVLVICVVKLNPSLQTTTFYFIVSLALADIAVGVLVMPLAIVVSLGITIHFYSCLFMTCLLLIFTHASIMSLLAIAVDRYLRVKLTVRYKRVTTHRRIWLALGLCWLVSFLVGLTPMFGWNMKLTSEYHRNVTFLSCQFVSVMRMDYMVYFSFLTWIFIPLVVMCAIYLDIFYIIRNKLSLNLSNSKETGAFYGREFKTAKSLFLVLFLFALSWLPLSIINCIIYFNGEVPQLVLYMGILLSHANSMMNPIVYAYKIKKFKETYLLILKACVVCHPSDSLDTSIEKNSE
The experiment is described as follows: Inhibition of adenosine A3 receptor (unknown origin).

pIC50: −log10 of the molar value.

Sequence of Translocator protein (P30536 whole entry): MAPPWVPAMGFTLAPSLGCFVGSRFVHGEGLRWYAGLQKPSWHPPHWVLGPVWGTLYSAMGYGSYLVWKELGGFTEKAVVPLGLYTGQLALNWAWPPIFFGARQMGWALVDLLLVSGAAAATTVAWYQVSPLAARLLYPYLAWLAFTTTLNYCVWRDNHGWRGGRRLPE

What is called pIC50 is the negative decadic logarithm of the IC50, by convention in mol/L. As to `COC(=O)C[C@@H]1N=C(c2ccc(Cl)cc2)c2c(sc(C)c2C)-n2c(C)nnc21`, the pIC50 against Translocator protein is 6.40; on Adenosine receptor A3, 5.85.
